From patent US20250345446A1 (Draupnir Bio ApS, priority 2022, published 2025)
pKd: −log10 of the molar value.

target: T1, soluble ectodomain of sortilin-6his (Homo sapiens, UniProt Q99523, V650M); test: MST binding to soluble ectodomain of sortilin-6his; details: Table 4; small molecule bifunctional compounds; MST
T1 construct: the soluble ectodomain of sortilin-6his is measured by microscale thermophoresis (MST)
Protocol: At this point the plate was sealed with adhesive strip and placed on an Eppendorf thermomixer to shake at 600 rpm for 3 min before spinning on a Fisherbrand plate-spinner for 15 seconds and further incubation 1 hrs at 19° C. MST was measured on a Monolith NT. Automated (Nanotemper) in standard-treated capillaries at 5% LED-power and high MST-power. Dose-response was extracted from the raw thermographs at 20 sec hot-time and the dissociation constant was estimated by sigmoidal curve fitting in MO. Affinity analysis program (Nanotemper). All experiments were run in duplicates.

T1 sequence (Q99523 with tags, fused parts or gaps V650M): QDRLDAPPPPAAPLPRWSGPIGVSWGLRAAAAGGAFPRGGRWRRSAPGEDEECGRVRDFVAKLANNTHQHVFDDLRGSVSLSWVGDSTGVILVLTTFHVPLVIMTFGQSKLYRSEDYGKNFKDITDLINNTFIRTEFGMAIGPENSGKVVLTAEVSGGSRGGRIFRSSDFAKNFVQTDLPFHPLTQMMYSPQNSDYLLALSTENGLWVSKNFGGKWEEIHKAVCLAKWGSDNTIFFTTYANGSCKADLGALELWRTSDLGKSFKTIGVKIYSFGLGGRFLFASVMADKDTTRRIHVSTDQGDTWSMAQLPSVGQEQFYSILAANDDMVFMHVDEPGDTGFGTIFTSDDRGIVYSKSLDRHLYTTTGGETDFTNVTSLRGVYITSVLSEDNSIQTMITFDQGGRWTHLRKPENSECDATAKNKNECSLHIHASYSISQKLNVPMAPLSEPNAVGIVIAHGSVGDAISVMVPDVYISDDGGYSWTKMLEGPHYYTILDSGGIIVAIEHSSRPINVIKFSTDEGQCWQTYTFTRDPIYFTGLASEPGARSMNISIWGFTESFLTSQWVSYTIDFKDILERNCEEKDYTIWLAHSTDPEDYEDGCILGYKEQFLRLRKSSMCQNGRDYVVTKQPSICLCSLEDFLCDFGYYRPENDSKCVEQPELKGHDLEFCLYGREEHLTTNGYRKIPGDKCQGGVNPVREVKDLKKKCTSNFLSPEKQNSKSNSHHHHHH

| Compound | KD score, binding to sortilin (Kd) |
| --- | --- |
| CC(C)(C)CC[C@H](NC(=O)COc1cccc(Oc2ccc(C(=O)NCCOCCOCCOCCOCc3cn(CCCCCOc4ncc(-c5ccc6c(n5)N(Cc5cccnc5C#N)C(C)(C)C6=O)cn4)nn3)cn2)c1)C(=O)O [BF075, (2S)-2-[[2-[3-[[5-[2-[2-[2-[2-[[1-[5-[5-[1-[(2-cyano-3-pyridyl)methyl]-2,2-dimethyl-3-oxo-pyrrolo[2,3-b]pyridin-6-yl]pyrimidin-2-yl]oxypentyl]triazol-4-yl]methoxy]ethoxy]ethoxy]ethoxy]ethylcarbamoyl]-2-pyridyl]oxy]phenoxy]acetyl]amino]-5,5-dimethyl-hexanoic acid] | 0 |

same assay, conditions: Table 4; small molecule bifunctional compounds; MST; read-out: KD score, binding to sortilin (Kd)

| Compound | pKd |
| --- | --- |
| CC(C)(C)CC[C@H](NC(=O)c1ccc(Oc2cccc(C(=O)NCCOCCOCCOc3ncc(-c4ccc5c(n4)N(Cc4cccnc4C#N)C(C)(C)C5=O)cn3)c2)nc1)C(=O)O [BF070, (2S)-2-[[6-[3-[2-[2-[2-[5-[1-[(2-cyano-3-pyridyl)methyl]-2,2-dimethyl-3-oxo-pyrrolo[2,3-b]pyridin-6-yl]pyrimidin-2-yl]oxyethoxy]ethoxy]ethylcarbamoyl]phenoxy]pyridine-3-carbonyl]amino]-5,5-dimethyl-hexanoic acid] | 8.00 to 9.00 |
| CC(C)(C)CC[C@H](NC(=O)COc1cccc(Oc2ccc(C(=O)NCCOCCNc3ncc(-c4ccc5c(n4)N(Cc4cccnc4C#N)C(C)(C)C5=O)cn3)cn2)c1)C(=O)O [BF072, (2S)-2-[[2-[3-[[5-[2-[2-[[5-[1-[(2-cyano-3-pyridyl)methyl]-2,2-dimethyl-3-oxo-pyrrolo[2,3-b]pyridin-6-yl]pyrimidin-2-yl]amino]ethoxy]ethylcarbamoyl]-2-pyridyl]oxy]phenoxy]acetyl]amino]-5,5-dimethyl-hexanoic acid] | > 9.00 |
| Cc1nc2cc(F)c(-c3cnc(OCCCCCn4cc(COCCOCCOCCOCCNC(=O)COc5cccc(Oc6ccc(C(=O)N[C@@H](CCC(C)(C)C)C(=O)O)cn6)c5)nn4)nc3)nc2c(N[C@H](C)c2cc(C#N)ccc2F)c1Cl [BF084, (2S)-2-[[6-[3-[2-[2-[2-[2-[2-[[1-[5-[5-[7-chloro-8-[[(1R)-1-(5-cyano-2-fluoro-phenyl)ethyl]amino]-3-fluoro-6-methyl-1,5-naphthyridin-2-yl]pyrimidin-2-yl]oxypentyl]triazol-4-yl]methoxy]ethoxy]ethoxy]ethoxy]ethylamino]-2-oxo-ethoxy]phenoxy]pyridine-3-carbonyl]amino]-5,5-dimethyl-hexanoic acid] | 8.00 to 9.00 |
| Cc1nc2cc(F)c(-c3cnc(OCCOCCOCCOCCOCCOCCOCCNC(=O)COc4cccc(Oc5ccc(C(=O)N[C@@H](CCC(C)(C)C)C(=O)O)cn5)c4)nc3)nc2c(N[C@H](C)c2cc(C#N)ccc2F)c1Cl [BF085, (2S)-2-[[6-[3-[2-[2-[2-[2-[2-[2-[2-[2-[5-[7-chloro-8-[[(1R)-1-(5-cyano-2-fluoro-phenyl)ethyl]amino]-3-fluoro-6-methyl-1,5-naphthyridin-2-yl]pyrimidin-2-yl]oxyethoxy]ethoxy]ethoxy]ethoxy]ethoxy]ethoxy]ethylamino]-2-oxo-ethoxy]phenoxy]pyridine-3-carbonyl]amino]-5,5-dimethyl-hexanoic acid] | 8.00 to 9.00 |
| Cc1nc2cc(F)c(-c3cnc(OCCOCCn4cc(COCC(=O)N5CC(OCCNC(=O)COc6cccc(Oc7ccc(C(=O)N[C@@H](CCC(C)(C)C)C(=O)O)cn7)c6)C5)nn4)nc3)nc2c(N[C@H](C)c2cc(C#N)ccc2F)c1Cl [BF088, (2S)-2-[[6-[3-[2-[2-[1-[2-[[1-[2-[2-[5-[7-chloro-8-[[(1R)-1-(5-cyano-2-fluoro-phenyl)ethyl]amino]-3-fluoro-6-methyl-1,5-naphthyridin-2-yl]pyrimidin-2-yl]oxyethoxy]ethyl]triazol-4-yl]methoxy]acetyl]azetidin-3-yl]oxyethylamino]-2-oxo-ethoxy]phenoxy]pyridine-3-carbonyl]amino]-5,5-dimethyl-hexanoic acid] | 8.00 to 9.00 |
| Cc1nc2cc(F)c(-c3cnc(OCCN4CC(n5cc(COCC(=O)N6CC(OCCNC(=O)COc7cccc(Oc8ccc(C(=O)N[C@@H](CCC(C)(C)C)C(=O)O)cn8)c7)C6)nn5)C4)nc3)nc2c(N[C@H](C)c2cc(C#N)ccc2F)c1Cl [BF089, (2S)-2-[[6-[3-[2-[2-[1-[2-[[1-[1-[2-[5-[7-chloro-8-[[(1R)-1-(5-cyano-2-fluoro-phenyl)ethyl]amino]-3-fluoro-6-methyl-1,5-naphthyridin-2-yl]pyrimidin-2-yl]oxyethyl]azetidin-3-yl]triazol-4-yl]methoxy]acetyl]azetidin-3-yl]oxyethylamino]-2-oxo-ethoxy]phenoxy]pyridine-3-carbonyl]amino]-5,5-dimethyl-hexanoic acid] | > 9.00 |
| Cc1nc2cc(F)c(-c3cnc(OCCN4CCC(n5cc(COCC(=O)N6CCC(OCCNC(=O)COc7cccc(Oc8ccc(C(=O)N[C@@H](CCC(C)(C)C)C(=O)O)cn8)c7)CC6)nn5)CC4)nc3)nc2c(N[C@H](C)c2cc(C#N)ccc2F)c1Cl [BF090, (2S)-2-[[6-[3-[2-[2-[[1-[2-[[1-[1-[2-[5-[7-chloro-8-[[(1R)-1-(5-cyano-2-fluoro-phenyl)ethyl]amino]-3-fluoro-6-methyl-1,5-naphthyridin-2-yl]pyrimidin-2-yl]oxyethyl]-4-piperidyl]triazol-4-yl]methoxy]acetyl]-4-piperidyl]oxy]ethylamino]-2-oxo-ethoxy]phenoxy]pyridine-3-carbonyl]amino]-5,5-dimethyl-hexanoic acid] | > 9.00 |
| C[C@@H]1CN(c2ncc(-c3ccc4c(n3)N(Cc3cccnc3C#N)C(C)(C)C4=O)cn2)CCN1C(=O)Cn1cc(COCCOCCOCCOCCOCCOc2cccc(Oc3ccc(C(=O)N[C@@H](CCC(C)(C)C)C(=O)O)cn3)c2)nn1 [BF098, (2S)-2-[[6-[3-[2-[2-[2-[2-[2-[[1-[2-[(2R)-4-[5-[1-[(2-cyano-3-pyridyl)methyl]-2,2-dimethyl-3-oxo-pyrrolo[2,3-b]pyridin-6-yl]pyrimidin-2-yl]-2-methyl-piperazin-1-yl]-2-oxo-ethyl]triazol-4-yl]methoxy]ethoxy]ethoxy]ethoxy]ethoxy]ethoxy]phenoxy]pyridine-3-carbonyl]amino]-5,5-dimethyl-hexanoic acid] | > 9.00 |
| C[C@@H]1CN(c2ncc(-c3ccc4c(n3)N(Cc3cccnc3C#N)C(C)(C)C4=O)cn2)CCN1C(=O)CNC(=O)CCCCCOCCOCCNC(=O)c1cccc(Oc2ccc(C(=O)N[C@@H](CCC(C)(C)C)C(=O)O)cn2)c1 [BF100, (2S)-2-[[6-[3-[2-[2-[6-[[2-[(2R)-4-[5-[1-[(2-cyano-3-pyridyl)methyl]-2,2-dimethyl-3-oxo-pyrrolo[2,3-b]pyridin-6-yl]pyrimidin-2-yl]-2-methyl-piperazin-1-yl]-2-oxo-ethyl]amino]-6-oxo-hexoxy]ethoxy]ethylcarbamoyl]phenoxy]pyridine-3-carbonyl]amino]-5,5-dimethyl-hexanoic acid] | > 9.00 |
| C[C@@H]1CN(c2ncc(-c3ccc4c(n3)N(Cc3cccnc3C#N)C(C)(C)C4=O)cn2)CCN1C(=O)Cn1cc(COCCOCCOCCOCCOc2cccc(Oc3ccc(C(=O)N[C@@H](CCC(C)(C)C)C(=O)O)cn3)c2)nn1 [BF101, (2S)-2-[[6-[3-[2-[2-[2-[2-[[1-[2-[(2R)-4-[5-[1-[(2-cyano-3-pyridyl)methyl]-2,2-dimethyl-3-oxo-pyrrolo[2,3-b]pyridin-6-yl]pyrimidin-2-yl]-2-methyl-piperazin-1-yl]-2-oxo-ethyl]triazol-4-yl]methoxy]ethoxy]ethoxy]ethoxy]ethoxy]phenoxy]pyridine-3-carbonyl]amino]-5,5-dimethyl-hexanoic acid] | 8.00 to 9.00 |
| C[C@@H]1CN(c2ncc(-c3ccc4c(n3)N(Cc3cccnc3C#N)C(C)(C)C4=O)cn2)CCN1C(=O)Cc1cn(CCCCCCCCCn2cc(-c3cccc(Oc4ccc(C(=O)N[C@@H](CCC(C)(C)C)C(=O)O)cn4)c3)nn2)nn1 [BF104, (2S)-2-[[6-[3-[1-[9-[4-[2-[(2R)-4-[5-[1-[(2-cyano-3-pyridyl)methyl]-2,2-dimethyl-3-oxo-pyrrolo[2,3-b]pyridin-6-yl]pyrimidin-2-yl]-2-methyl-piperazin-1-yl]-2-oxo-ethyl]triazol-1-yl]nonyl]triazol-4-yl]phenoxy]pyridine-3-carbonyl]amino]-5,5-dimethyl-hexanoic acid] | > 9.00 |
| C[C@@H]1CN(c2ncc(-c3ccc4c(n3)N(Cc3cccnc3C#N)C(C)(C)C4=O)cn2)CCN1C(=O)CNC(=O)CCCCCCCCn1cc(CCc2cccc(Oc3ccc(C(=O)N[C@@H](CCC(C)(C)C)C(=O)O)cn3)c2)nn1 [BF108, (2S)-2-[[6-[3-[2-[1-[9-[[2-[(2R)-4-[5-[1-[(2-cyano-3-pyridyl)methyl]-2,2-dimethyl-3-oxo-pyrrolo[2,3-b]pyridin-6-yl]pyrimidin-2-yl]-2-methyl-piperazin-1-yl]-2-oxo-ethyl]amino]-9-oxo-nonyl]triazol-4-yl]ethyl]phenoxy]pyridine-3-carbonyl]amino]-5,5-dimethyl-hexanoic acid] | 8.00 to 9.00 |
| C[C@@H]1CN(c2ncc(-c3ccc4c(n3)N(Cc3cccnc3C#N)C(C)(C)C4=O)cn2)CCN1C(=O)Cn1cc(COCCOCCOCC(=O)N2CC(Oc3cccc(Oc4ccc(C(=O)N[C@@H](CCC(C)(C)C)C(=O)O)cn4)c3)C2)nn1 [BF111, (2S)-2-[[6-[3-[1-[2-[2-[2-[[1-[2-[(2R)-4-[5-[1-[(2-cyano-3-pyridyl)methyl]-2,2-dimethyl-3-oxo-pyrrolo[2,3-b]pyridin-6-yl]pyrimidin-2-yl]-2-methyl-piperazin-1-yl]-2-oxo-ethyl]triazol-4-yl]methoxy]ethoxy]ethoxy]acetyl]azetidin-3-yl]oxyphenoxy]pyridine-3-carbonyl]amino]-5,5-dimethyl-hexanoic acid] | > 9.00 |
